From patent US7902226B2, “Dehalogeno-compounds” (Daiichi Pharmaceutical Co., Ltd., priority 2000, dated 2011) come the findings set out here.

The structures appear in SMILES notation. Converted amounts (≈) assume the structure as drawn.

For one data set, the system named is S. aureus, 870307. Nature of the data set: Antibacterial activity (MIC), standard method of the Japan Society of Chemotherapy. Format: cell-based. The settings on record: Staphylococcus aureus. Here is the method: (§1) Antibacterial activities of the compounds of this invention were measured in accordance to the standard method designated by the Japan Society of Chemotherapy, with the results shown as MIC values (microgram/ml) units in the following table. For comparison with the MIC values of the compounds of this invention, MIC values of levofloxacin (LVFX), ciprofloxacin (CPFX) and 7-[3-(R)-(1-aminocyclopropyl)pyrrolidin-1-yl]-6-fluoro-1-[2-(S)-fluoro-1-(R)-cyclopropyl]-8-methyl-1,4-dihydro-4-oxoquinoline-3-carboxylic acid (Reference drug 1), which is described in PCT/JP96/00208, are also shown in the table.

A further data set concerns Str. pneumoniae J24. Described as above. Format: cell-based. The settings on record: Streptococcus pneumoniae. Here is the method:
as §1

A further data set has as its system S. flexneri, 2A 5503. Described as above. Type of data set: cell-based. The note with it: Shigella flexneri, 2A5503. Here is the method: as §1
For another data set, the system named is K. pneumoniae, Type 1. The data set is described as above. Format: cell-based. The settings on record: Klebsiella pneumoniae, TYPE1. Here is the method: as §1
For another data set, the system named is S. aureus, 209P. The description is as above. Type of data set: cell-based. The settings on record: Staphylococcus aureus. Here is the method: as §1
A further data set concerns S. epidermidis, 56500. Described as above. Type of data set: cell-based. The note with it: Staphylococcus epidermidis. Here is the method:
as §1

The next data set relates to Str. pyogenes, G-36. The data set is described as above. Format: cell-based. The note with it: Streptococcus pyogenes, G36. Here is the method:
as §1

A further data set has as its system Pr. vulgalis, 08601. The data set is described as above. Format: cell-based. Here is the method:
as §1

In data set [1] the test system is Str. faecalis, ATCC 19433. The data set is described as above. The note with it: Enterococcus faecalis, ATCC19433. Type of data set: cell-based. Here is the method: as §1
The test system of another data set is E. coli, NIHJ. The description is as above. Format: cell-based. The settings on record: Escherichia coli. Here is the method:
as §1

Another data set deals with Ps. aeruginosa, 32104. Described as above. Format: cell-based. The note with it: Pseudomonas aeruginosa. Here is the method:
as §1

For the next data set, the system named is Ser. marcescens, 10100. The data set is described as above. Type of data set: cell-based. The settings on record: Serratia marcescens. Here is the method: as §1
Data set [2] concerns Ps. maltophilia, IID-1275. Described as above. The settings on record: Stenotrophomonas maltophilia, IID1275. Format: cell-based. Here is the method: as §1
For a further data set, the system named is Ps. aeruginosa, 32121. Described as above. Format: cell-based. The settings on record: Pseudomonas aeruginosa. Here is the method:
as §1

The melting point is the temperature of the solid-liquid transition. A word on the MIC: it is the least concentration at which growth counts as inhibited. Lower therefore signals inhibition by little substance. The molecule `CNC1([C@@H]2CCN(c3ccc4c(=O)c(C(=O)O)cn(C5CC5)c4c3C)C2)CC1` [Example 15, 1-(cyclopropyl)-8-methyl-7-[3-(R)-[1-(methylamino)cyclopropyl]pyrrolidin-1-yl]-1,4-dihydro-4-oxoquinoline-3-carboxylic acid] had a melting point of 190 to 192 °C. Moreover, inhibition of growth against S. aureus, 870307 (MIC) required 0.025 µg/mL (≈ 0.0655 µM). Also, in the data set with Str. pneumoniae J24, the MIC was no more than 0.003 µg/mL. Moreover, the MIC against S. flexneri, 2A 5503 is 0.006 µg/mL (≈ 0.0157 µM). The molecule also had a minimum inhibitory concentration (MIC) in the data set on K. pneumoniae, Type 1 of 0.025 µg/mL (≈ 0.0655 µM). In the data set on S. aureus, 209P, this molecule gave a minimal inhibitory concentration (MIC) of no more than 0.003 µg/mL. Moreover, 0.006 µg/mL (≈ 0.0157 µM) was the least that counted as inhibitory in the data set with S. epidermidis, 56500 (MIC). For the same molecule, in the data set with Str. pyogenes, G-36, the MIC was no more than 0.003 µg/mL. This molecule yielded a minimal inhibitory concentration (MIC) against Pr. vulgalis, 08601 of 0.012 µg/mL (≈ 0.0315 µM). In addition, the MIC in data set [1] was 0.025 µg/mL (≈ 0.0655 µM). Further, the MIC in the data set on E. coli, NIHJ is no more than 0.003 µg/mL. This molecule also returned an MIC against Ps. aeruginosa, 32104 of 0.1 µg/mL (≈ 0.262 µM). In the data set with Ser. marcescens, 10100, this molecule displayed a minimum inhibitory concentration (MIC) of 0.1 µg/mL (≈ 0.262 µM). Further, in data set [2], the MIC stood at 0.2 µg/mL (≈ 0.524 µM). The molecule also returned a minimal inhibitory concentration (MIC) against Ps. aeruginosa, 32121 of 0.05 µg/mL (≈ 0.131 µM).

With `CNC1([C@@H]2CCN(c3ccc4c(=O)c(C(=O)O)cn([C@@H]5C[C@@H]5F)c4c3OC)C2)CC1` [Example 11, 1-[2-(S)-fluoro-1-(R)-cyclopropyl]-8-methoxy-7-[3-(R)-[1-(methylamino)cyclopropyl]pyrrolidin-1-yl]-1,4-dihydro-4-oxoquinoline-3-carboxylic acid], the melting point lay within 213 to 215 °C. In the data set with S. aureus, 870307, this molecule yielded an MIC of 0.05 µg/mL (≈ 0.12 µM). Inhibition of growth against Str. pneumoniae J24 (MIC) required 0.006 µg/mL (≈ 0.0144 µM). In the data set on S. flexneri, 2A 5503, this molecule had an MIC of 0.012 µg/mL (≈ 0.0289 µM). The molecule further came in with a minimum inhibitory concentration (MIC) in the data set with K. pneumoniae, Type 1 of 0.1 µg/mL (≈ 0.241 µM). This molecule also gave an MIC in the data set on S. aureus, 209P of no more than 0.003 µg/mL. In the data set on S. epidermidis, 56500, this molecule displayed an MIC of 0.012 µg/mL (≈ 0.0289 µM). This molecule also returned an MIC in the data set with Str. pyogenes, G-36 of 0.012 µg/mL (≈ 0.0289 µM). Moreover, the MIC against Pr. vulgalis, 08601 was 0.012 µg/mL (≈ 0.0289 µM). The same molecule yielded an MIC in data set [1] of 0.05 µg/mL (≈ 0.12 µM). Further, the MIC against E. coli, NIHJ stood at 0.006 µg/mL (≈ 0.0144 µM). The molecule further yielded an MIC in the data set with Ps. aeruginosa, 32104 of 0.2 µg/mL (≈ 0.481 µM). For the same molecule, the lowest concentration to inhibit growth with Ser. marcescens, 10100 (MIC) was 0.2 µg/mL (≈ 0.481 µM). Moreover, the minimum inhibitory concentration (MIC) in [2] turned out to be 0.2 µg/mL (≈ 0.481 µM). The molecule further registered an MIC against Ps. aeruginosa, 32121 of 0.1 µg/mL (≈ 0.241 µM).

The molecule `Cc1c(N2CC[C@@H](C3(N)CC3)C2)ccc2c(=O)c(C(=O)O)cn(C3CC3)c12` [Example 3, 7-[3-(R)-(1-aminocyclopropyl)pyrrolidin-1-yl]-1-cyclopropyl-1,4-dihydro-8-methyl-4-oxoquinoline-3-carboxylic acid] came in with a melting point of 230 to 233 °C. The molecule also displayed an MIC in the data set on S. aureus, 870307 of 0.025 µg/mL (≈ 0.068 µM). Further, the minimum inhibitory concentration (MIC) in the data set with Str. pneumoniae J24 was no more than 0.003 µg/mL. In addition, the MIC in the data set with S. flexneri, 2A 5503 is no more than 0.003 µg/mL. Also, the minimum inhibitory concentration (MIC) with K. pneumoniae, Type 1 was 0.012 µg/mL (≈ 0.0327 µM). The MIC against S. aureus, 209P is no more than 0.003 µg/mL. For the same molecule, the minimum inhibitory concentration (MIC) against S. epidermidis, 56500 came out at 0.003 µg/mL (≈ 0.00816 µM). Besides, inhibition of growth in the data set with Str. pyogenes, G-36 (MIC) required 0.003 µg/mL (≈ 0.00816 µM). Also, the minimal inhibitory concentration (MIC) against Pr. vulgalis, 08601 was no more than 0.003 µg/mL. It took 0.012 µg/mL (≈ 0.0327 µM) to inhibit growth in data set [1] (MIC). Moreover, the minimum inhibitory concentration (MIC) in the data set with E. coli, NIHJ was no more than 0.003 µg/mL. Also, in the data set on Ps. aeruginosa, 32104, it took 0.05 µg/mL (≈ 0.136 µM) to inhibit growth (MIC). Also, in the data set on Ser. marcescens, 10100, it took 0.025 µg/mL (≈ 0.068 µM) to inhibit growth (MIC). In data set [2], 0.05 µg/mL (≈ 0.136 µM) was the least that counted as inhibitory (MIC). Besides, inhibition of growth with Ps. aeruginosa, 32121 (MIC) required 0.025 µg/mL (≈ 0.068 µM).

`CNC1([C@@H]2CCN(c3ccc4c(=O)c(C(=O)O)cn([C@@H]5C[C@@H]5F)c4c3C)C2)CC1` [Example 10, 1-[2-(S)-fluoro-1-(R)-cyclopropyl]-8-methyl-7-[3-(R)-[1-(methylamino)cyclopropyl]pyrrolidin-1-yl]-1,4-dihydro-4-oxoquinoline-3-carboxylic acid] came in with a melting point of 223 to 224 °C. In the data set on S. aureus, 870307, this molecule had a minimum inhibitory concentration (MIC) of 0.025 µg/mL (≈ 0.0626 µM). The minimum inhibitory concentration (MIC) with Str. pneumoniae J24 was no more than 0.003 µg/mL. In the data set on S. flexneri, 2A 5503, this molecule registered a minimal inhibitory concentration (MIC) of 0.006 µg/mL (≈ 0.015 µM). Further, in the data set on K. pneumoniae, Type 1, inhibition of growth (MIC) required 0.025 µg/mL (≈ 0.0626 µM). The same molecule gave an MIC against S. aureus, 209P of no more than 0.003 µg/mL. This molecule also returned an MIC in the data set on S. epidermidis, 56500 of 0.006 µg/mL (≈ 0.015 µM). Moreover, the MIC with Str. pyogenes, G-36 was no more than 0.003 µg/mL. In addition, the MIC in the data set with Pr. vulgalis, 08601 amounted to 0.006 µg/mL (≈ 0.015 µM). Moreover, the MIC in [1] is 0.012 µg/mL (≈ 0.03 µM). In the data set with E. coli, NIHJ, this molecule showed a minimal inhibitory concentration (MIC) of no more than 0.003 µg/mL. In the data set on Ps. aeruginosa, 32104, this molecule had an MIC of 0.1 µg/mL (≈ 0.25 µM). In addition, in the data set with Ser. marcescens, 10100, the MIC turned out to be 0.05 µg/mL (≈ 0.125 µM). Besides, the MIC in data set [2] stood at 0.1 µg/mL (≈ 0.25 µM). This molecule came in with an MIC against Ps. aeruginosa, 32121 of 0.025 µg/mL (≈ 0.0626 µM).

`CCNC1([C@@H]2CCN(c3ccc4c(=O)c(C(=O)O)cn([C@@H]5C[C@@H]5F)c4c3C)C2)CC1` [Example 14, 7-[3-(R)-[1-(ethylamino)cyclopropyl]pyrrolidin-1-yl]-1-[2-(S)-fluoro-1-(R)-cyclopropyl]-8-methyl-1,4-dihydro-4-oxoquinoline-3-carboxylic acid]: the melting point was in the range of 191 to 194 °C. This molecule showed an MIC against S. aureus, 870307 of 0.012 µg/mL (≈ 0.029 µM). In the data set with Str. pneumoniae J24, this molecule showed an MIC of no more than 0.003 µg/mL. Further, the lowest concentration to inhibit growth against S. flexneri, 2A 5503 (MIC) was 0.006 µg/mL (≈ 0.0145 µM). In the data set on K. pneumoniae, Type 1, the minimum inhibitory concentration (MIC) was determined as 0.05 µg/mL (≈ 0.121 µM). Besides, in the data set with S. aureus, 209P, the MIC is no more than 0.003 µg/mL. The same molecule had an MIC in the data set on S. epidermidis, 56500 of 0.006 µg/mL (≈ 0.0145 µM). This molecule had a minimum inhibitory concentration (MIC) in the data set with Str. pyogenes, G-36 of no more than 0.003 µg/mL. Also, the MIC in the data set with Pr. vulgalis, 08601 stood at 0.012 µg/mL (≈ 0.029 µM). The minimal inhibitory concentration (MIC) in data set [1] is 0.025 µg/mL (≈ 0.0605 µM). This molecule also came in with an MIC against E. coli, NIHJ of no more than 0.003 µg/mL. The same molecule returned a minimum inhibitory concentration (MIC) in the data set on Ps. aeruginosa, 32104 of 0.1 µg/mL (≈ 0.242 µM). Besides, the minimal inhibitory concentration (MIC) with Ser. marcescens, 10100 was 0.1 µg/mL (≈ 0.242 µM). In addition, the MIC in data set [2] came out at 0.2 µg/mL (≈ 0.484 µM). Inhibition of growth against Ps. aeruginosa, 32121 (MIC) required 0.05 µg/mL (≈ 0.121 µM).
